{
  "source": "patent US11013249B2",
  "about": "“Compositions for controlled release of volatile compounds” (University of Guelph, priority 2016, dated 2021)",
  "key": {"[1]": {"experiment": "Release of diacetyl and AITC vapours from PEG blends into jar headspace (automatic headspace sampling, GC)", "assay_type": "physicochemical", "details": "from 4:1 PEG400:PEG10K", "protocol": "PEG400 and PEG10K were blended at 1:4, 2:3, 3:2 and 4:1 (w/w) ratios. All PEG blends (20±1 g) were heated to 90° C. in a 20 mL glass vial for 20 min to ensure the polymers were melted and thoroughly mixed with the aid of a magnetic stir bar. […] The vials were capped, kept in a 75° C. oven and continuously being stirred with the magnetic stir bar for 15 min. The molten mixtures were injected into a mould fabricated from glass (2 cm×1.5 cm×0.1 cm) and allowed to set. One face of the mould was lined with aluminum tape (adhesive side facing away from PEG), which acted as a baking material for the solidified PEG. Upon solidification, diacetyl/AITC impregnated PEG sheeting was formed.\nWith the aid of a controller (SRI Instruments Inc., Las Vegas, Nev., USA), the headspace air in the glass jar was sampled automatically by means of a vacuum pump and two stream selection valves (Model EMTCA-CE, VICI Valco Instruments Co. Inc., Houston, Texax, USA), and injected into a gas chromatograph equipped with flame ionization detector (GC 6890, Agilent Technologies Inc., Santa Clara, Calif., USA.). Both the detector and oven temperatures were set at 150° C. The flow rates of the carrier gas (N2), compressed air and hydrogen were 30 mL/min, 200 mL/min and 30 mL/min, respectively. Retention time and peak area were analyzed by using chromatographic software (Peak Simple 393-32 bit, SRI Instruments, Torrance, Calif., USA). After each sampling, an equal amount of dry air was injected back into the jar to maintain the interior pressure at one atmosphere.\nDiacetyl or AITC release profiles were generated by plotting Mn versus time.\nThe release profiles of the antimicrobial compounds were fitted in a model which combines first order kinetics and zero order kinetics: C=Ce×(1−e^−kt)+αt (Eq. 3) where C is the compound concentration at time t; Ce is the equilibrium concentration for diffusion; k is the diffusion rate constant; α is the rate of zero order kinetics. Models are fitted to the data before reaching the equilibrium."}, "Yeast": {"test_system": "Yeast", "experiment": "Inhibitory effects of AITC, diacetyl and cinnamaldehyde vapour", "assay_type": "cell-based, yeast isolated from mung bean sprouts", "protocol": "(§1) P. fluorescens was selected as a model spoilage bacteria, while mould and yeast were isolated from spoiled mung bean sprouts with bacteria excluded by cultivating in potato dextrose broth (PDB) (Sigma, Oakville, ON, Canada) at pH 5.6±0.2. Yeast and P. fluorescens stocks were cultivated in PDB and trypticase soy broth (TSB) (Bacto, BD, Sparks, USA), respectively, at 30° C. for 24 h and diluted with sterile saline solution (NaCl, 8.5 g/L water) to a concentration of 10^6 CFU/mL. An aliquot of 50 μL of the prepared yeast or bacteria suspension was spread on potato dextrose agar (PDA) (Difco, BD, Sparks, USA) or trypticase soy agar (TSA) (Bacto, BD, Sparks, USA), respectively, in 5 cm diameter petri dishes (Fisher Scientific, Ottawa, ON, Canada). Mycelium of mould was inoculated as one spot at the center of the PDA dishes. Two freshly inoculated petri dishes of same microorganism, with their lids removed, were placed in a one-liter glass jar. […] The growth of the microorganisms was monitored by the colony formation for 3 days."}, "Mould": {"test_system": "Mould", "experiment": "Inhibitory effects of AITC, diacetyl and cinnamaldehyde vapour", "assay_type": "cell-based, mould isolated from mung bean sprouts", "details": "vapour in one-liter jar; 25° C.", "protocol": "as §1"}, "P. Fluorescens": {"test_system": "P. Fluorescens", "experiment": "Inhibitory effects of AITC, diacetyl and cinnamaldehyde vapour", "assay_type": "cell-based, Pseudomonas fluorescens P33", "details": "25° C.", "protocol": "as §1"}, "[2]": {"details": "cited from earlier work"}, "[3]": {"details": "Amount 0.1 mg in one-liter jar, 25° C."}},
  "note": "Several values for one entry are separate records, joined by “and”; a condition that tells them apart may be missing. Identical values can stand only once. Like-named read-outs stand apart in the source and are kept apart here.",
  "data": [
    {"smiles": "C=CCN=C=S", "note": "[AITC, Allyl isothiocyanate]", "values": [
      {"measurement": "Ce", "setting": "[1]; 0 μL water, 5° C.", "result": 0.0212, "unit": "mg/L"},
      {"measurement": "k", "setting": "[1]; 0 μL water, 5° C.", "result": 0.0149, "unit": "h⁻¹"},
      {"measurement": "α", "setting": "[1]; 0 μL water, 5° C.", "result": "3.39e-06", "unit": "h⁻¹"},
      {"measurement": "Ce", "setting": "[1]; 0 μL water, 25° C.", "result": 0.0791, "unit": "mg/L"},
      {"measurement": "k", "setting": "[1]; 0 μL water, 25° C.", "result": "0.016 h⁻¹ and 0.01604 h⁻¹"},
      {"measurement": "α", "setting": "[1]; 0 μL water, 25° C.", "result": "1.94e-05", "unit": "h⁻¹"},
      {"measurement": "maximum released after 42 h", "setting": "[1]; 5° C.", "result": 0.14, "unit": "mg"},
      {"measurement": "Ce", "setting": "[1]; 10 μL water, 5° C.", "result": 0.0245, "unit": "mg/L"},
      {"measurement": "k", "setting": "[1]; 10 μL water, 5° C.", "result": 0.01509, "unit": "h⁻¹"},
      {"measurement": "α", "setting": "[1]; 10 μL water, 5° C.", "result": "3.63e-06", "unit": "h⁻¹"},
      {"measurement": "Ce", "setting": "[1]; 10 μL water, 25° C.", "result": 0.1012, "unit": "mg/L"},
      {"measurement": "k", "setting": "[1]; 10 μL water, 25° C.", "result": 0.01169, "unit": "h⁻¹"},
      {"measurement": "α", "setting": "[1]; 10 μL water, 25° C.", "result": "1.76e-05", "unit": "h⁻¹"},
      {"measurement": "maximum released after 42 h", "setting": "[1]; 25° C.", "result": 0.47, "unit": "mg"},
      {"measurement": "maximum release within 42 h", "setting": "[1]; 25° C., 10 μL water", "result": 0.15, "unit": "mg"},
      {"measurement": "maximum release within 42 h", "setting": "[1]; 25° C., 100 μL water", "result": 0.18, "unit": "mg"},
      {"measurement": "maximum release within 42 h", "setting": "[1]; 25° C., 1000 μL water", "result": 0.48, "unit": "mg"},
      {"measurement": "maximum release within 42 h", "setting": "[1]; 25° C., dry condition", "result": 0.13, "unit": "mg"},
      {"measurement": "Ce", "setting": "[1]; 100 μL water, 5° C.", "result": 0.0353, "unit": "mg/L"},
      {"measurement": "k", "setting": "[1]; 100 μL water, 5° C.", "result": 0.01022, "unit": "h⁻¹"},
      {"measurement": "α", "setting": "[1]; 100 μL water, 5° C.", "result": "1.09e-05", "unit": "h⁻¹"},
      {"measurement": "Ce", "setting": "[1]; 100 μL water, 25° C.", "result": 0.1523, "unit": "mg/L"},
      {"measurement": "k", "setting": "[1]; 100 μL water, 25° C.", "result": 0.00896, "unit": "h⁻¹"},
      {"measurement": "α", "setting": "[1]; 100 μL water, 25° C.", "result": "1.25e-05", "unit": "h⁻¹"},
      {"measurement": "Ce", "setting": "[1]; 1000 μL water, 5° C.", "result": 0.0454, "unit": "mg/L"},
      {"measurement": "k", "setting": "[1]; 1000 μL water, 5° C.", "result": 0.00564, "unit": "h⁻¹"},
      {"measurement": "α", "setting": "[1]; 1000 μL water, 5° C.", "result": "3.75e-05", "unit": "h⁻¹"},
      {"measurement": "Ce", "setting": "[1]; 1000 μL water, 25° C.", "result": 0.1365, "unit": "mg/L"},
      {"measurement": "k", "setting": "[1]; 1000 μL water, 25° C.", "result": "0.009 h⁻¹ and 0.00945 h⁻¹"},
      {"measurement": "time of reaching equilibrium of release", "setting": "[1]; 1000 μL water, 25° C.", "result": "around 1300 min"},
      {"measurement": "α", "setting": "[1]; 1000 μL water, 25° C.", "result": "0.00029 h⁻¹ and 0.000291 h⁻¹"},
      {"measurement": "Yeast day1, visual colony number", "setting": "Yeast; [3]", "result": "+ (less than 15)"},
      {"measurement": "Yeast day2, visual colony number", "setting": "Yeast; [3]", "result": "+ (less than 15)"},
      {"measurement": "Yeast day3, visual colony number", "setting": "Yeast; [3]", "result": "+ (less than 15)"},
      {"measurement": "MIC", "setting": "Yeast; read-out: minimum inhibition concentration (MIC)", "result": 0.5, "unit": "µg/mL"},
      {"measurement": "effective concentration against yeast", "setting": "Yeast; vapour in one-liter jar, 25° C.", "result": 0.5, "unit": "mg/L"},
      {"measurement": "concentration that inhibited the growth of mould for three days", "setting": "Mould", "result": 0.1, "unit": "mg/L"},
      {"measurement": "P. Fluorescens day1, visual colony number", "setting": "P. Fluorescens; Amount 0.1 mg in one-liter jar", "result": "++ (15-50)"},
      {"measurement": "P. Fluorescens day2, visual colony number", "setting": "P. Fluorescens; Amount 0.1 mg in one-liter jar", "result": "++ (15-50)"},
      {"measurement": "P. Fluorescens day1, visual colony number", "setting": "P. Fluorescens; Amount 0.5 mg in one-liter jar", "result": "+ (less than 15)"},
      {"measurement": "P. Fluorescens day2, visual colony number", "setting": "P. Fluorescens; Amount 0.5 mg in one-liter jar", "result": "+ (less than 15)"},
      {"measurement": "effective concentration against P. fluorescens", "setting": "P. Fluorescens; vapour in one-liter jar", "result": 1, "unit": "mg/L"},
      {"measurement": "Saturated vapor pressure", "setting": "[2]; 5° C.", "result": "~140", "unit": "Pa"},
      {"measurement": "vapor pressure (volatility)", "setting": "[2]; 20° C.", "result": 0.49, "unit": "kPa"},
      {"measurement": "Saturated vapor pressure", "setting": "[2]; 45° C.", "result": "~1500", "unit": "Pa"}
    ]}
  ]
}
